Measured values taken from PubChem BioAssay AID192 (DTP/NCI, 2004).
Several values for one entry are separate records, joined by “and”; a condition that tells them apart may be missing. Equal values may be shown once. Toxic doses and inconclusive results are not listed. Peptide text beside a SMILES is read from it. * marks the point of attachment. Boc = CC(C)(C)OC(=O)*; NHNH2 = NN*

Test system: BDF1 mice, B16 melanoma ip, median survival T/C
Assay: NCI In Vivo Anticancer Drug Screen. Data for tumor model B16 Melanoma (intraperitoneal) in B6D2F1 (BDF1) mice
Settings: endpoint: median survival time, higher = longer survival
In short: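 Compounds were tested in mice carrying transplantable tumors. Survival or tumor size was recorded, and each value is the treated-group measurement (T) divided by that of the vehicle-treated control group (C).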

[1] = dose: 25.0 mg/kg/injection, schedule: Q01DX009 (ip), vehicle: saline
[2] = dose: 50.0 mg/kg/injection, schedule: Q01DX009 (ip), vehicle: saline
[3] = dose: 100.0 mg/kg/injection, schedule: Q01DX009 (ip), vehicle: saline
[4] = dose: 200.0 mg/kg/injection, schedule: Q01DX009 (ip), vehicle: saline
[5] = dose: 6.25 mg/kg/injection, schedule: Q01DX009 (ip), vehicle: Klucel (hydroxypropylcellulose) (HPC)
[6] = dose: 12.5 mg/kg/injection, schedule: Q01DX009 (ip), vehicle: Klucel (hydroxypropylcellulose) (HPC)
[7] = dose: 25.0 mg/kg/injection, schedule: Q01DX009 (ip), vehicle: Klucel (hydroxypropylcellulose) (HPC)
[8] = dose: 100.0 mg/kg/injection, schedule: Q01DX009 (ip), vehicle: Klucel (hydroxypropylcellulose) (HPC)
[9] = dose: 200.0 mg/kg/injection, schedule: Q01DX009 (ip), vehicle: Klucel (hydroxypropylcellulose) (HPC)
[10] = dose: 2.5 mg/kg/injection, schedule: Q01DX009 (ip), vehicle: saline with Tween-80
[11] = dose: 3.12 mg/kg/injection, schedule: Q01DX009 (ip), vehicle: Klucel (hydroxypropylcellulose) (HPC)
[12] = dose: 5.0 mg/kg/injection, schedule: Q01DX009 (ip), vehicle: saline with Tween-80
[13] = dose: 10.0 mg/kg/injection, schedule: Q01DX009 (ip), vehicle: saline with Tween-80
[14] = dose: 50.0 mg/kg/injection, schedule: Q01DX009 (ip), vehicle: Klucel (hydroxypropylcellulose) (HPC)
[15] = dose: 100.0 mg/kg/injection, schedule: Q01DX009 (ip), vehicle: saline with Tween-80
[16] = dose: 200.0 mg/kg/injection, schedule: Q01DX009 (ip), vehicle: saline with Tween-80

With `Nc1ncnc2c1c1c(N)[nH]nc1n2C1OC(CO)C(O)C1O` (stereo not given) the T/C [1] was 110 % of control, the T/C [2] was 106 % of control and the T/C [3] was 95 % of control.

For `CC(C)CC(NC(=O)C(Cc1c[nH]c2ccccc12)NC(=O)OC(C)(C)C)C(=O)NN` (stereo not drawn) (Boc-Trp-Leu-NHNH2; configuration not given here), the T/C [1] was 88 % of control, the T/C [2] was 98 % of control and the T/C [3] was 88 % of control. The T/C [4] was 87 % of control.

For `CC(C)=CC(=O)OC1C2C(C)C(=O)OC2C(O)C(C)C2C=CC(=O)C21C` (stereo not given), the T/C [5] was 95 % of control, the T/C (dose: 6.25 mg/kg/injection, schedule: Q01DX009 (ip), vehicle: saline with Tween-80) was 91 % of control and the T/C [6] was 97 % of control. The T/C (dose: 12.5 mg/kg/injection, schedule: Q01DX009 (ip), vehicle: saline with Tween-80) was 94 % of control, the T/C [7] was 93 % of control and 99 % of control and the T/C (dose: 25.0 mg/kg/injection, schedule: Q01DX009 (ip), vehicle: saline with Tween-80) was 97 % of control.

With `COc1ccc(NC(=O)Nc2ccccc2F)cc1` the T/C [8] was 97 % of control and the T/C [9] was 97 % of control.

In the case of `COC(=O)CC1(O)C=CC(=O)C=C1`, the T/C (dose: 1.56 mg/kg/injection, schedule: Q01DX009 (ip), vehicle: Klucel (hydroxypropylcellulose) (HPC)) is reported as 95 % of control, the T/C [10] is reported as 98 % of control and the T/C [11] is reported as 96 % of control. The T/C [12] was 102 % of control, the T/C [5] was 97 % of control and the T/C [13] was 93 % of control. For the same compound, the T/C [6] was 94 % of control, the T/C (dose: 20.0 mg/kg/injection, schedule: Q01DX009 (ip), vehicle: saline with Tween-80) was 102 % of control and the T/C [7] was 91 % of control.

In the case of `Cc1c2cc[n+](C)c(C)c2cc2c1[nH]c1ccc(O)cc12`, the T/C (dose: 2.5 mg/kg/injection, schedule: Q04DX003 (ip), vehicle: water) is reported as 117 % of control and 120 % of control and the T/C (dose: 10.0 mg/kg/injection, schedule: Q04DX003 (ip), vehicle: water) is reported as 150 % of control.

`Clc1ccc2c(Cl)ncnc2c1` was tested, and the T/C [6] was 100 % of control, the T/C [7] was 100 % of control and the T/C [14] was 102 % of control. The T/C [8] was 100 % of control and the T/C [9] was 90 % of control.

For `CCOC(=O)CCOc1ccc(Cl)cc1`, the T/C [15] was 101 % of control, the T/C [16] was 102 % of control and the T/C (dose: 400.0 mg/kg/injection, schedule: Q01DX009 (ip), vehicle: saline with Tween-80) was 96 % of control.

With `COc1cc2c(ccc3c4cc(OC)c(OC)cc4c[n+](C)c23)cc1O` the T/C (dose: 50.0 mg/kg/injection, schedule: Q01DX009 (ip), vehicle: saline with Tween-80) was 108 % of control, the T/C [15] was 97 % of control and the T/C [16] was 100 % of control.

With `[I][Ga]([I])[I]` the T/C (dose: 12.5 mg/kg/injection, schedule: Q01DX009 (ip), vehicle: saline) was 87 % of control and the T/C [1] was 102 % of control.

For `CCN(CC)CCOC(=O)c1cccnc1`, the T/C [1] was 100 % of control, the T/C [2] was 105 % of control and the T/C [3] was 102 % of control. The T/C [4] was 102 % of control and the T/C (dose: 400.0 mg/kg/injection, schedule: Q01DX009 (ip), vehicle: saline) was 100 % of control.

With `N=C(N)SCc1cccc([N+](=O)[O-])c1` the T/C [6] was 93 % of control, the T/C [7] was 103 % of control and the T/C [14] was 97 % of control.

With `CC1CC(C)(O)C2C3(C)CCCC2(COC3=O)C12CCC1(CCOC1=O)O2` (stereo not given) the T/C [10] was 102 % of control, the T/C [12] was 94 % of control and the T/C [13] was 98 % of control.

In the case of `CCC(C)C1CCCCC1` (stereo not given), the T/C [8] is reported as 91 % of control, the T/C [9] is reported as 108 % of control and the T/C (dose: 400.0 mg/kg/injection, schedule: Q01DX009 (ip), vehicle: Klucel (hydroxypropylcellulose) (HPC)) is reported as 98 % of control.

`CCOCCCN` was tested, and the T/C [2] was 122 % of control and the T/C [3] was 122 % of control.

`CC(C)C1OC(=O)/C=C/C=C/C=C/C=C/C=C/CC(O)C(C)C(O)CC(O)CC(O)CC(O)CC(O)CC(O)CC(O)/C=C/C1C` (stereo not given) was tested, and the T/C (dose: 6.25 mg/kg/injection, schedule: Q01DX009 (ip), vehicle: saline) was 98 % of control.

In the case of `CC(C)(SCCc1ccc([N+](=O)[O-])cc1)C(N)C(=O)O` (stereo not given), the T/C [5] is reported as 88 % of control.

For `N#CC(C#N)=C/C=C/c1cccc([N+](=O)[O-])c1`, the T/C [11] was 110 % of control, the T/C [5] was 104 % of control and the T/C [6] was 115 % of control.
